We go through 20 compounds from patent US12692262B2, “Substituted ureas as orexin receptor agonists” (Merck Sharp & Dohme LLC, priority 2020, dated 2026).

The structures appear in SMILES notation.

This test has as its target T1, human OX2R (Homo sapiens, UniProt O43614).
T1 construct: expressed in transfected cells; host or cells: CHO (Chinese hamster ovary) cells grown under G418 selection
T1 sequence (O43614 1-444): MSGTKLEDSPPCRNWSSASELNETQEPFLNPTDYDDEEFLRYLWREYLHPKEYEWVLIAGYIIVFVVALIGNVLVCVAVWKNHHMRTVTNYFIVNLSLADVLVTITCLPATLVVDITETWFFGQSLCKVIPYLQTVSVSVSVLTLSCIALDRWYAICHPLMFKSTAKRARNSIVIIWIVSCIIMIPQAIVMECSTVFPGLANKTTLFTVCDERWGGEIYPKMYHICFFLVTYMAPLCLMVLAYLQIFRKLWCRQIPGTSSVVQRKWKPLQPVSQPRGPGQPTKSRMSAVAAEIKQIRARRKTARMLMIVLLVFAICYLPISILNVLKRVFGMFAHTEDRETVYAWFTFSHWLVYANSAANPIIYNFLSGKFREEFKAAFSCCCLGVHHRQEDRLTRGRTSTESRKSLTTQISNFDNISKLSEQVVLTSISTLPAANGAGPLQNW
The test is described as follows: IPOne (IP-1 accumulation) assay in CHO cells expressing human OX2R. Type of test: cell-based. The conditions noted are these: for EC50: CHO cells expressing human OX2R, IP-One assay, 2 h incubation, four parameter logistic fit, read-out: OX2R Potency, EC50; for % of maximum agonist effect (relative to Orexin A): percent effect vs mean max effect of a reference compound at 1 uM (100% activity vs Orexin A), human OX2R. An excerpt:
The utility of the compounds in accordance with the present invention as orexin receptor OX1R and/or OX2R agonists may be readily determined without undue experimentation by methodology well known in the art. Both the OX1R and/or OX2R G-coupled protein receptors (GPCRs) couple through the Gαq signaling pathway, which ultimately promotes calcium mobilization via inositol triphosphate (IP3) production. […] The utility of the compounds in accordance with the present invention as orexin receptor OX1R and/or OX2R agonists may be determined utilizing this assay.
In a typical experiment, the OX1 and OX2 receptor agonist activity is determined in accordance with the following general experimental method. Chinese hamster ovary (CHO) cells expressing human OX1R and/or the human OX2R were grown in Iscove's modified DMEM containing glutaMAX™, 1% G418, 100 U/mL penicillin, 100 μg/mL streptomycin and 10% heat-inactivated qualified fetal bovine serum (FBS). […] During this incubation, IP-one detection reagents were prepared (38:1:1 lysis buffer:D2:AB-cryptate reagents).
For each compound, data were fit to a four parameter logistic fit (ActivityBase software) and the EC50 was reported as the inflection point of the resulting curve. […] The intrinsic orexin receptor agonist activity of a compound which may be used in the present invention may be determined by these assays.

One may read the EC50 as the concentration that produces a half-maximal response. As for `C=CC[C@H](NC(=O)N(CC)C(c1cc(-c2cn3ccnc3c(OC)n2)c(OC)cn1)C(F)(F)F)C(F)(F)F` (mixture of isomers) [Example 5-1, 1-ethyl-1-(2,2,2-trifluoro-1-(5-methoxy-4-(8-methoxyimidazo[1,2-a]pyrazin-6-yl)pyridin-2-yl)ethyl)-3-((S)-1,1,1-trifluoropent-4-en-2-yl)urea], the EC50 came out at 4.8 nM and the “% of maximum agonist effect (relative to Orexin A)” value was 100.4%.

As for `CCN(C(=O)N[C@@H](C1CCCC(F)(F)C1)C(F)(F)F)[C@H](C)c1cccc(-c2cn3ccnc3c(OC)n2)c1` (single isomer, unassigned) [Example 3-1], the EC50 amounted to 0.9 nM and the “% of maximum agonist effect (relative to Orexin A)” value turned out to be 100.8%.

As for `CCN(C(=O)N[C@@H](CCC(F)(F)F)C(F)(F)F)C(C)c1cc(-c2cc(F)c3nccn3c2)c(Cl)cn1` (single isomer, unassigned) [Example 15-1], the EC50 worked out at 5.8 nM and the “% of maximum agonist effect (relative to Orexin A)” value was 100.5%.

As for `CCN(C(=O)NC(C#N)C1CCCC(F)(F)C1)[C@H](C)c1cccc(-c2cn3ccnc3c(OC)n2)c1` (single isomer, unassigned) [Example 16], the 50% effective concentration (EC50) amounted to 3.2 nM and the “% of maximum agonist effect (relative to Orexin A)” value was determined as 100.8%.

For `CCN(C(=O)NC(CO)C(F)(F)F)[C@H](C)c1cccc(-c2cn3ccnc3c(OC)n2)c1` (single isomer, unassigned) [Example 21], the concentration for a half-maximal effect (EC50) was determined as 50.9 nM and the “% of maximum agonist effect (relative to Orexin A)” value came to 96.3%.

Regarding `CCN(C(=O)NC(COC(=O)N(C)C)C(F)(F)F)[C@H](C)c1cccc(-c2cn3ccnc3c(OC)n2)c1` (single isomer, unassigned) [Example 23], the EC50 stood at 125 nM and the “% of maximum agonist effect (relative to Orexin A)” value is on record as 95.3%.

For `CCN(C(=O)NC(CC(=O)N(C)C)C(F)(F)F)[C@H](C)c1cccc(-c2cn3ccnc3c(OC)n2)c1` (single isomer, unassigned) [Example 24], the 50% effective concentration (EC50) was 144 nM and the “% of maximum agonist effect (relative to Orexin A)” value is 89.1%.

`CCN(C(=O)N[C@@H](CCC(F)(F)F)C(F)(F)F)[C@H](C)c1cccc(-c2ccc3nccn3c2)c1` [Example 1-1, 1-ethyl-3-((S)-1,1,1,5,5,5-hexafluoropentan-2-yl)-1-((R)-1-(3-(imidazo[1,2-a]pyridin-6-yl)phenyl)ethyl)urea]: the EC50 worked out at 7.1 nM and the “% of maximum agonist effect (relative to Orexin A)” value was 98.4%.

For the compound `CCN(C(=O)N[C@H](C)c1cccc(F)c1)[C@H](C)c1cccc(-c2cn3ccnc3c(OC)n2)c1` [Example 1-2, 1-ethyl-3-((R)-1-(3-fluorophenyl)ethyl)-1-((R)-1-(3-(8-methoxyimidazo[1,2-a]pyrazin-6-yl)phenyl)ethyl)urea], the concentration giving a half-maximal response (EC50) is 5.2 nM and the “% of maximum agonist effect (relative to Orexin A)” value turned out to be 98.3%.

For `CCN(C(=O)N[C@@H]1CC[C@H](C(F)(F)F)C1)[C@H](C)c1cccc(-c2cn3ccnc3c(OC)n2)c1` [Example 1-3, 1-ethyl-1-((R)-1-(3-(8-methoxyimidazo[1,2-a]pyrazin-6-yl)phenyl)ethyl)-3-((1R,3S)-3-(trifluoromethyl)cyclopentyl)urea], the EC50 was determined as 6.5 nM and the “% of maximum agonist effect (relative to Orexin A)” value is recorded as 99.9%.

Turning to `CCN(C(=O)N[C@H](C)C1CCC(F)(F)CC1)[C@H](C)c1cccc(-c2cn3ccnc3c(OC)n2)c1` [Example 1-4, 3-((R)-1-(4,4-difluorocyclohexyl)ethyl)-1-ethyl-1-((R)-1-(3-(8-methoxyimidazo[1,2-a]pyrazin-6-yl)phenyl)ethyl)urea], the EC50 came to 6.9 nM and the “% of maximum agonist effect (relative to Orexin A)” value was 96.1%.

With `CCN(C(=O)NCC(F)(F)F)[C@H](C)c1cccc(-c2cn3ccnc3c(OC)n2)c1` [Example 1-5, (R)-1-ethyl-1-(1-(3-(8-methoxyimidazo[1,2-a]pyrazin-6-yl)phenyl)ethyl)-3-(2,2,2-trifluoroethyl)urea], the EC50 amounted to 73.4 nM and the “% of maximum agonist effect (relative to Orexin A)” value stood at 94.9%.

As to `CCN(C(=O)NC[C@H]1COCC(=O)N1)[C@H](C)c1cccc(-c2cn3ccnc3c(OC)n2)c1` [Example 1-6, 1-ethyl-1-((R)-1-(3-(8-methoxyimidazo[1,2-a]pyrazin-6-yl)phenyl)ethyl)-3-(((S)-5-oxomorpholin-3-yl)methyl)urea], the EC50 is 193 nM and the “% of maximum agonist effect (relative to Orexin A)” value was 99.0%.

Take `CCN(C(=O)NCC(N(C)C)C(F)(F)F)[C@H](C)c1cccc(-c2cc(OC)c3nccn3c2)c1` (stereo partly drawn) [Example 1-7, 3-(2-(dimethylamino)-3,3,3-trifluoropropyl)-1-ethyl-1-((R)-1-(3-(8-methoxyimidazo[1,2-a]pyridin-6-yl)phenyl)ethyl)urea]: the EC50 turned out to be 17.5 nM and the “% of maximum agonist effect (relative to Orexin A)” value came to 97.3%.

As to `CC[C@H](CCC(F)(F)F)NC(=O)N(CC)Cc1ccc(OC)c(-c2cc(OC)c3nccn3c2)c1` [Example 1-8, (R)-1-ethyl-1-(4-methoxy-3-(8-methoxyimidazo[1,2-a]pyridin-6-yl)benzyl)-3-(6,6,6-trifluorohexan-3-yl)urea], the 50% effective concentration (EC50) worked out at 0.8 nM and the “% of maximum agonist effect (relative to Orexin A)” value worked out at 96.5%.

Take `CCN(C(=O)NC(C)C1CCCC(F)(F)C1)[C@H](C)c1cccc(-c2cn3ccnc3c(OC)n2)c1` (stereo partly drawn) [Example 1-9, 3-(1-(3,3-difluorocyclohexyl)ethyl)-1-ethyl-1-((R)-1-(3-(8-methoxyimidazo[1,2-a]pyrazin-6-yl)phenyl)ethyl)urea]: the concentration giving a half-maximal response (EC50) was 0.6 nM and the “% of maximum agonist effect (relative to Orexin A)” value amounted to 99.8%.

Regarding `CCN(C(=O)NC(C#N)C1CCCC1)[C@H](C)c1cccc(-c2cn3ccnc3c(OC)n2)c1` (stereo partly drawn) [Example 1-10, 3-(cyano(cyclopentyl)methyl)-1-ethyl-1-((R)-1-(3-(8-methoxyimidazo[1,2-a]pyrazin-6-yl)phenyl)ethyl)urea], the 50% effective concentration (EC50) worked out at 8.3 nM and the “% of maximum agonist effect (relative to Orexin A)” value worked out at 101.0%.

Take `CCOC(=O)CC(NC(=O)N(CC)[C@H](C)c1cccc(-c2cn3ccnc3c(OC)n2)c1)C(F)(F)F` (stereo partly drawn) [Example 1-11, ethyl 3-(3-ethyl-3-((R)-1-(3-(8-methoxyimidazo[1,2-a]pyrazin-6-yl)phenyl)ethyl)ureido)-4,4,4-trifluorobutanoate]: the EC50 stood at 20.1 nM and the “% of maximum agonist effect (relative to Orexin A)” value is given as 98.0%.

For the compound `CCN(C(=O)NC(C#N)c1cccc(C(F)(F)F)c1)[C@H](C)c1cccc(-c2cn3ccnc3c(OC)n2)c1` (stereo partly drawn) [Example 1-12, 3-(cyano(3-(trifluoromethyl)phenyl)methyl)-1-ethyl-1-((R)-1-(3-(8-methoxyimidazo[1,2-a]pyrazin-6-yl)phenyl)ethyl)urea], the EC50 stood at 19.8 nM and the “% of maximum agonist effect (relative to Orexin A)” value is 99.1%.

For `CCN(C(=O)NC(CN(C)C)C(F)(F)F)[C@H](C)c1cccc(-c2cc(OC)n3nccc3c2)c1` (stereo partly drawn) [Example 1-13, 3-(3-(dimethylamino)-1,1,1-trifluoropropan-2-yl)-1-ethyl-1-((R)-1-(3-(7-methoxypyrazolo[1,5-a]pyridin-5-yl)phenyl)ethyl)urea], the EC50 is 146 nM and the “% of maximum agonist effect (relative to Orexin A)” value was 80.7%.
